Experiments:
Format in all cases: in vivo
corn (Zea mays) = test: Test A pre-/postemergence plant response
Method in brief: (§1)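 Seeds sown in loam–sand blend; test chemicals in non-phytotoxic solvent with surfactant applied preemergence as directed soil spray and, concurrently, postemergence to plants 2–10 cm tall at one- to two-leaf stage. Greenhouse ~10 days, then visual injury rating vs untreated controls on 0–100 scale (0 = no effect, 100 = complete control).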

[1] = system: giant foxtail (Setaria faberi); test: Test A pre-/postemergence plant response
Method in brief: as §1

[2] = system: Italian ryegrass (Lolium multiflorum); test: Test B pre-/postemergence plant response
Method in brief: (§2)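 Seeds were sown and sprayed preemergence, while plants at 2 to 18 cm (1- to 4-leaf stage) got postemergence sprays. Compounds were formulated in a non-phytotoxic solvent mixture with surfactant. After 13 to 15 days in a greenhouse, injury was rated visually against untreated controls, 0 (no effect) to 100 (complete control).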

[3] = system: bermudagrass (Cynodon dactylon); test: Test B pre-/postemergence plant response; details: for Bermudagrass plant response rating: 8 g ai/ha
Method in brief: as §2

[4] = system: common (oilseed) sunflower (Helianthus annuus); test: Test B pre-/postemergence plant response; details: Preemergence
Method in brief: as §2

[5] = system: eastern black (E.B.) nightshade (Solanum ptycanthum); test: Test B pre-/postemergence plant response; details: Preemergence
Method in brief: as §2

[6] = system: johnsongrass (Sorghum halepense); test: Test B pre-/postemergence plant response
Method in brief: as §2

kochia (Kochia scoparia) = test: Test B pre-/postemergence plant response
Method in brief: as §2

soybean (Glycine max) = test: Test B pre-/postemergence plant response
Method in brief: as §2

[7] = system: velvetleaf (Abutilon theophrasti); test: Test B pre-/postemergence plant response
Method in brief: as §2

[8] = system: wheat (Triticum aestivum); test: Test B pre-/postemergence plant response
Method in brief: as §2

[9] = system: yellow nutsedge (Cyperus esculentus); test: Test B pre-/postemergence plant response
Method in brief: as §2

[10] = Postemergence, 31 g ai/ha, 0 to 100 scale, 0 no effect, 100 complete control
[11] = Postemergence, 125 g ai/ha, 0 to 100 scale, 0 no effect, 100 complete control
[12] = Preemergence, 31 g ai/ha, 0 to 100 scale, 0 is no effect, 100 is complete control
[13] = Preemergence, 125 g ai/ha, 0 to 100 scale (0 no effect, 100 complete control)
[14] = 8 g ai/ha, postemergence, 0-100 scale
[15] = Postemergence, 16 g ai/ha, scale 0 to 100
[16] = Postemergence, 31 g ai/ha, scale 0 to 100
[17] = Postemergence, 62 g ai/ha, scale 0 to 100, 0 no effect, 100 complete control
[18] = Preemergence, 31 g ai/ha, scale 0 to 100 (0 no effect, 100 complete control)
[19] = Preemergence, 62 g ai/ha, scale 0 to 100
[20] = Preemergence, 8 g ai/ha, scale 0 to 100
[21] = Preemergence, 16 g ai/ha, scale 0 to 100
[22] = Preemergence, scale 0 to 100 (0 no effect, 100 complete control)
[23] = Preemergence, 16 g ai/ha, scale 0 to 100 (0 no effect, 100 complete control)
[24] = Preemergence, 31 g ai/ha, 0 to 100 scale, 0 no effect, 100 complete control
[25] = 31 g ai/ha, scale 0 to 100 (0 no effect, 100 complete control)
[26] = Preemergence, 62 g ai/ha, 0 to 100 scale, 0 no effect, 100 complete control
[27] = 62 g ai/ha, 0 to 100 scale, 0 no effect, 100 complete control

Cc1cc(-c2ccc(Cl)cc2)nn1-c1c(OC(=O)Oc2ccccc2)cnn(C)c1=O [Compound 54]
Plant response rating, Corn (corn (Zea mays); [10]): 40
Plant response rating, Corn (corn (Zea mays); [11]): 90
Plant response rating, Corn (corn (Zea mays); [12]): 0
Plant response rating, Corn (corn (Zea mays); [13]): 60
Plant response rating, Foxtail, Giant [1, 10]: 90
Plant response rating, Foxtail, Giant [1, 11]: 100
Plant response rating, Foxtail, Giant [1, 12]: 90
Plant response rating, Foxtail, Giant [1, 13]: 100
Ryegrass, Italian plant response rating [2, 14]: 75
Plant response rating, Ryegrass, Italian [2, 15]: 95
Plant response rating, Ryegrass, Italian [2, 16]: 95
Plant response rating, Ryegrass, Italian [2, 17]: 100
Plant response rating, Ryegrass, Italian [2, 18]: 90
Plant response rating, Ryegrass, Italian [2, 19]: 100
Ryegrass, Italian plant response rating [2, 20]: 20
Ryegrass, Italian plant response rating [2, 21]: 90
Bermudagrass plant response rating ([3]; postemergence, 0-100 scale): 100
Plant response rating, Bermudagrass [3, 15]: 100
Plant response rating, Bermudagrass [3, 16]: 100
Plant response rating, Bermudagrass [3, 17]: 100
Bermudagrass plant response rating [3, 22]: 0
Plant response rating, Bermudagrass [3, 23]: 0
Plant response rating, Bermudagrass [3, 24]: 0
Plant response rating, Bermudagrass [3, 19]: 0
Plant response rating, Sunflower [4, 25]: 0
Plant response rating, Sunflower ([4]; 62 g ai/ha, scale 0 to 100): 0
Sunflower plant response rating ([4]; 8 g ai/ha, scale 0 to 100): 0
Sunflower plant response rating ([4]; 16 g ai/ha, scale 0 to 100): 0
Plant response rating, Nightshade, E. B. [5, 25]: 0
Plant response rating, Nightshade, E. B. ([5]; 62 g ai/ha, scale 0 to 100): 0
Nightshade, E. B. plant response rating ([5]; 8 g ai/ha, scale 0 to 100): 0
Nightshade, E. B. plant response rating ([5]; 16 g ai/ha, scale 0 to 100): 0
Johnsongrass plant response rating [6, 14]: 0
Plant response rating, Johnsongrass [6, 15]: 25
Plant response rating, Johnsongrass [6, 16]: 80
Plant response rating, Johnsongrass [6, 17]: 100
Plant response rating, Johnsongrass [6, 24]: 75
Plant response rating, Johnsongrass [6, 19]: 90
Johnsongrass plant response rating [6, 20]: 0
Johnsongrass plant response rating [6, 21]: 40
Kochia plant response rating (kochia (Kochia scoparia); [14]): 0
Plant response rating, Kochia (kochia (Kochia scoparia); [15]): 0
Plant response rating, Kochia (kochia (Kochia scoparia); [16]): 0
Plant response rating, Kochia (kochia (Kochia scoparia); [17]): 0
Plant response rating, Kochia (kochia (Kochia scoparia); [24]): 0
Soybean plant response rating (soybean (Glycine max); [14]): 0
Plant response rating, Soybean (soybean (Glycine max); [15]): 0
Plant response rating, Soybean (soybean (Glycine max); [16]): 0
Plant response rating, Soybean (soybean (Glycine max); [17]): 0
Plant response rating, Soybean (soybean (Glycine max); [18]): 0
Plant response rating, Soybean (soybean (Glycine max); [19]): 0
Soybean plant response rating (soybean (Glycine max); [20]): 0
Soybean plant response rating (soybean (Glycine max); [21]): 0
Velvetleaf plant response rating [7, 14]: 0
Plant response rating, Velvetleaf [7, 15]: 0
Plant response rating, Velvetleaf [7, 16]: 0
Plant response rating, Velvetleaf [7, 17]: 0
Plant response rating, Velvetleaf [7, 18]: 0
Plant response rating, Velvetleaf [7, 26]: 0
Velvetleaf plant response rating [7, 20]: 0
Velvetleaf plant response rating [7, 21]: 0
Wheat plant response rating [8, 14]: 0
Plant response rating, Wheat [8, 15]: 30
Plant response rating, Wheat [8, 16]: 60
Plant response rating, Wheat [8, 17]: 60
Plant response rating, Wheat [8, 18]: 10
Plant response rating, Wheat [8, 26]: 50
Wheat plant response rating [8, 21]: 0
Nutsedge, Yellow plant response rating [9, 14]: 0
Plant response rating, Nutsedge, Yellow [9, 15]: 0
Plant response rating, Nutsedge, Yellow [9, 16]: 0
Plant response rating, Nutsedge, Yellow [9, 17]: 0
Plant response rating, Nutsedge, Yellow [9, 18]: 0
Plant response rating, Nutsedge, Yellow [9, 19]: 0
Nutsedge, Yellow plant response rating [9, 20]: 0
Nutsedge, Yellow plant response rating [9, 21]: 0

CCCC(=O)Oc1cnn(C)c(=O)c1-n1nc(-c2ccc(Cl)cc2)cc1C [Compound 56]
Plant response rating, Corn (corn (Zea mays); [10]): 90
Plant response rating, Corn (corn (Zea mays); [11]): 100
Plant response rating, Corn (corn (Zea mays); [12]): 40
Plant response rating, Corn (corn (Zea mays); [13]): 80
Plant response rating, Foxtail, Giant [1, 10]: 100
Plant response rating, Foxtail, Giant [1, 11]: 100
Plant response rating, Foxtail, Giant [1, 12]: 90
Plant response rating, Foxtail, Giant [1, 13]: 100
Ryegrass, Italian plant response rating [2, 14]: 0
Plant response rating, Ryegrass, Italian [2, 15]: 40
Plant response rating, Ryegrass, Italian [2, 16]: 60
Plant response rating, Ryegrass, Italian [2, 17]: 65
Plant response rating, Ryegrass, Italian [2, 18]: 98
Plant response rating, Ryegrass, Italian [2, 26]: 100
Ryegrass, Italian plant response rating [2, 20]: 60
Ryegrass, Italian plant response rating [2, 21]: 98
Bermudagrass plant response rating ([3]; postemergence, 0-100 scale): 65
Plant response rating, Bermudagrass [3, 15]: 70
Plant response rating, Bermudagrass [3, 16]: 95
Plant response rating, Bermudagrass [3, 17]: 100
Bermudagrass plant response rating [3, 22]: 85
Plant response rating, Bermudagrass [3, 23]: 100
Plant response rating, Bermudagrass [3, 18]: 100
Plant response rating, Bermudagrass [3, 26]: 100
Plant response rating, Sunflower [4, 25]: 0
Plant response rating, Sunflower [4, 27]: 0
Sunflower plant response rating ([4]; 8 g ai/ha, scale 0 to 100): 0
Sunflower plant response rating ([4]; 16 g ai/ha, scale 0 to 100): 0
Plant response rating, Nightshade, E. B. [5, 25]: 0
Plant response rating, Nightshade, E. B. [5, 27]: 20
Nightshade, E. B. plant response rating ([5]; 8 g ai/ha, scale 0 to 100): 0
Nightshade, E. B. plant response rating ([5]; 16 g ai/ha, scale 0 to 100): 0
Johnsongrass plant response rating [6, 14]: 0
Plant response rating, Johnsongrass [6, 15]: 65
Plant response rating, Johnsongrass [6, 16]: 85
Plant response rating, Johnsongrass [6, 17]: 100
Plant response rating, Johnsongrass [6, 18]: 70
Plant response rating, Johnsongrass [6, 26]: 100
Johnsongrass plant response rating [6, 20]: 60
Johnsongrass plant response rating [6, 21]: 65
Kochia plant response rating (kochia (Kochia scoparia); [14]): 0
Plant response rating, Kochia (kochia (Kochia scoparia); [15]): 0
Plant response rating, Kochia (kochia (Kochia scoparia); [16]): 0
Plant response rating, Kochia (kochia (Kochia scoparia); [17]): 0
Plant response rating, Kochia (kochia (Kochia scoparia); [18]): 98
Plant response rating, Kochia (kochia (Kochia scoparia); [26]): 100
Kochia plant response rating (kochia (Kochia scoparia); [20]): 0
Kochia plant response rating (kochia (Kochia scoparia); [21]): 20
Soybean plant response rating (soybean (Glycine max); [14]): 0
Plant response rating, Soybean (soybean (Glycine max); [15]): 0
Plant response rating, Soybean (soybean (Glycine max); [16]): 0
Plant response rating, Soybean (soybean (Glycine max); [17]): 0
Plant response rating, Soybean (soybean (Glycine max); [26]): 0
Soybean plant response rating (soybean (Glycine max); [20]): 0
Soybean plant response rating (soybean (Glycine max); [21]): 0
Velvetleaf plant response rating [7, 14]: 0
Plant response rating, Velvetleaf [7, 15]: 0
Plant response rating, Velvetleaf [7, 16]: 0
Plant response rating, Velvetleaf [7, 17]: 0
Plant response rating, Velvetleaf [7, 18]: 0
Plant response rating, Velvetleaf [7, 26]: 0
Velvetleaf plant response rating [7, 20]: 0
Velvetleaf plant response rating [7, 21]: 0
Wheat plant response rating [8, 14]: 5
Plant response rating, Wheat [8, 15]: 65
Plant response rating, Wheat [8, 16]: 80
Plant response rating, Wheat [8, 17]: 90
Plant response rating, Wheat [8, 18]: 35
Plant response rating, Wheat [8, 26]: 80
Wheat plant response rating [8, 21]: 10
Nutsedge, Yellow plant response rating [9, 14]: 0
Plant response rating, Nutsedge, Yellow [9, 15]: 0
Plant response rating, Nutsedge, Yellow [9, 16]: 0
Plant response rating, Nutsedge, Yellow [9, 17]: 0
Plant response rating, Nutsedge, Yellow [9, 18]: 0
Plant response rating, Nutsedge, Yellow [9, 26]: 0
Nutsedge, Yellow plant response rating [9, 20]: 0
Nutsedge, Yellow plant response rating [9, 21]: 0

— patent US20100267561A1, “HERBICIDAL PYRIDAZINONE DERIVATIVES” (priority 2007, published 2010)
